From patent US20210268062A1, “INFLAMMATORY SKIN DISORDER TREATMENT” (NOVAPEP PTY LTD, priority 2018, published 2021)

Experiments:
p-AKT = p-AKT ELISA in AE.Hy926 cells treated with PAR1 peptide and/or thrombin; format: cell-based, human; parameters: pAKT compared to adding thrombin alone: dose or concentration left out as unconfirmed
Protocol: AE.Hy926 cells (ATCC® CRL-2922′), the human umbilical vein cell line, established by fusing primary human umbilical vein cells with a thioguanine-resistant clone of A549 by exposure to polyethylene glycol (PEG), were cultured in Dulbecco's Modified Eagle's Medium (DMEM, high glucose) containing 10% fetal bovine serum (FBS) in 75 sq cm flasks. When cells reached confluence, they were trypsinzed and seeded into 48 well plates at 1×10^4 viable cells/well for 2 days to reach complete confluency. Before treatment, cells were preincubated with DMEM medium (no FBS) for 2 hrs, then switched to fresh DMEM and treated with: • PAR1 12mer peptide (shown on graphs as PAR1) (or scrambled control (SC) of PAR1 peptide) • thrombin
either alone or at different combinations for 1 hr. After treatment, media were discarded and 100 μl lysis buffer was added to each wells and cell lysates were collected and stored in −40° C. for ELISA.
Human p-GSK and p-AKT were measured using ELISA Dueset kits (R&D Systems) according to manufacturers' instructions.

Akt = assay: Induction of Akt activation in keratinocytes (phosphorylation of Ser473); format: cell-based; details: with PAR-1 inhibitor
Protocol: Briefly, cells are washed three times with PBS and lysed with lysis buffer (0.15 M NaCl, 0.01 mM PMSF, 1% NP-40, 0.02 M Tris, 6 M urea/H2O). Cell lysates are centrifuged at 10,000 g for 15 minutes and supernatants are separated by 10% sodium-dodecyl-sulphate polyacrylamide-gel electrophoresis (SDS-PAGE) and transferred to a PDVF membrane. The primary antibodies used are as follows against pan or phospho specific forms of Akt, GSK3β, ERK1/2. Immunoreactivity is detected by using the ECL detection system (Amersham Biosciences, Buckinghamshire, UK). Anti-human (3-actin (Sigma-Aldrich) antibody is included to normalize for unequal loading. Protein band intensity is evaluated by densitometry by ImageQuant™ LAS 4000 (GE Healthcare Life Sciences).
To confirm activation of Akt by TR47, Akt-mediated inactivation of GSK3β via phosphorylation at Ser9 is determined. GSK3β is a well-known downstream substrate for Akt.

## NPNDKYEPFWED (listed as Homo sapiens) [PAR1 peptide, PAR1 12mer peptide]
p-AKT; PAR1 peptide added 15 mins before or after thrombin, FIG. 8B
  Akt activity: enhance the Akt activity
p-AKT; PAR1 peptide, after 1 hour, AE.Hy926 cells
  activation of Akt as determined by phosphorylation of Ser473: induced robust activation of Akt
p-AKT; higher concentrations, eg 10 nM thrombin in the presence of peptide
  pAKT: significantly enhanced pAKT
p-AKT; lower doses of thrombin and PAR1 peptide added together simultaneously, FIG. 8A
  pAKT compared to adding thrombin alone: increased pAKT

## CC(C)c1ccc(Cn2ccc3c4c(N)nc(NC5CC5)nc4ccc32)cc1 [SCH79797]
Akt
  dependence of Akt activation on PAR-1: activation of Akt is dependent on PAR-1

## thrombin
p-AKT; thrombin alone at 0.1 and 0.25 nM, FIG. 8A
  phosphorylation of AKT: inhibited phosphorylation of AKT
